{"source": "patent US20190262371A1", "about": "“METHODS AND COMPOSITION FOR THE TREATMENT OF RNA VIRAL INFECTIONS” (The Regents of the University of California, priority 2016, published 2019)", "tested_on": "ZIKV (MR766)", "assay": "Inhibitor activity analysis: effect of methyltransferase inhibitors on ZIKV replication in a microglial cell line (supernatant one-step qRT-PCR)", "type": "cell-based, ZIKA virus", "settings": "assay not given, presumably ZIKV inhibition, 10 μM, MOI 1, 24 h / 48 h, normalized to DMSO", "protocol": "FIG. 7. Microglial cell-line was plated 1×10^6 cells per well in 24 well plate and cultured for 24 h. Cell were then treated in triplicate with series of methyltransferase inhibitors ([…]) for one hour followed by infection with ZIKV (MR766, MOI: 1) and changed the fresh medium after 2 hrs of ZIKV infection and re-added the drugs. After 24 h of the infection, we collected the supernatant and did one-step qRT-PCR. Fold inhibition of ZIKV infection was normalized from DMSO control.\nFIG. 8. Microglial cell-line was plated 1×10^6 cells per well in 24 well plate and cultured for 24 h. […]\nEffects of methyltransferase inhibitors on ZIKV replication was monitored using previously published methods (Dang, J., Tiwari, S. K., Lichinchi, G., Qin, Y., Patil, V. S., Eroshkin, A. M., and Rana, T. M. (2016); Zika Virus Depletes Neural Progenitors in Human Cerebral Organoids through Activation of the Innate Immune Receptor TLR3. Cell Stem Cell 19, 258-265; Lichinchi, G., Zhao, B. S., Wu, Y., Lu, Z., Qin, Y., He, C., and Rana, T. M. (2016). Dynamics of Human and Viral RNA Methylation during Zika Virus Infection. Cell Host Microbe 20, 666-673; Tiwari, S. K., Dang, J., Qin, Y., Lichinchi, G., Bansal, V., and Rana, T. M. (2017), which are incorporated herein in their entirety for all purposes). […]"}
{"smiles": "Nc1ncnc2c1ncn2C1OC(CNCCn2c3ccccc3c3ccccc32)C(O)C1O", "note": "(stereo not shown) [TR-H-08]", "values": [{"measurement": "activity (found to be an active compound)", "value": "active"}]}
